Results as given in patent publication US8609703B2, “Modulators of ATP-binding cassette transporters” (Vertex Pharmaceuticals Incorporated, priority 2005, dated 2013).

Biological target: T1, ΔF508-CFTR (Homo sapiens, UniProt P13569, DEL508-508)
T1 construct: expressed in transfected cells
Experiment: EC50 and relative efficacy as modulators of ΔF508-CFTR (membrane potential optical assay)
Type: cell-based
Settings: for % Activity: relative efficacy
Excerpt: I) Membrane Potential Optical Methods for Assaying ΔF508-CFTR Modulation Properties of Compounds
The optical membrane potential assay utilized voltage-sensitive FRET sensors described by Gonzalez and Tsien (See., Gonzalez, J. E. and R. Y. Tsien (1995) “Voltage sensing by fluorescence resonance energy transfer in single cells” Biophys J 69(4): 1272-80, and Gonzalez, J. E. and R. Y. Tsien (1997) “Improved indicators of cell membrane potential that use fluorescence resonance energy transfer” Chem Biol 4(4): 269-77) in combination with instrumentation for measuring fluorescence changes such as the Voltage/Ion Probe Reader (VIPR) (See Gonzalez, J. E., K. Oades, et al. (1999) “Cell-based assays and instrumentation for screening ion-channel targets” Drug Discov Today 4(9): 431-439).
These voltage sensitive assays are based on the change in fluorescence resonant energy transfer (FRET) between the membrane-soluble, voltage-sensitive dye, DiSBAC2(3), and a fluorescent phospholipid, CC2-DMPE, which is attached to the outer leaflet of the plasma membrane and acts as a FRET donor. Changes in membrane potential (Vm) cause the negatively charged DiSBAC2(3) to redistribute across the plasma membrane and the amount of energy transfer from CC2-DMPE changes accordingly. The changes in fluorescence emission were monitored using VIPR which is an integrated liquid handler and fluorescent detector designed to conduct cell-based screens in 96- or 384-well microtiter plates.
To identify small molecules that correct the trafficking defect associated with ΔF508-CFTR; a single-addition HTS assay format was developed. The cells were incubated in serum-free medium for 16 hrs at 37° C. in the presence or absence (negative control) of test compound. As a positive control, cells plated in 384-well plates were incubated for 16 hrs at 27° C. to “temperature-correct” ΔF508-CFTR. The cells were subsequently rinsed 3× with Krebs Ringers solution and loaded with the voltage-sensitive dyes. To activate ΔF508-CFTR, 10 μM forskolin and the CFTR potentiator, genistein (20 μM), were added along with Cl^−-free medium to each well. The addition of Cl^−-free medium promoted Cl^− efflux in response to LF508-CFTR activation and the resulting membrane depolarization was optically monitored using the FRET-based voltage-sensor dyes.
To identify potentiators of ΔF508-CFTR, a double-addition HTS assay format was developed. During the first addition, a Cl^−-free medium with or without test compound was added to each well. After 22 sec, a second addition of Cl^−-free medium containing 2-10 μM forskolin was added to activate ΔF508-CFTR. The extracellular Cl^− concentration following both additions was 28 mM, which promoted Cl^− efflux in response to ΔF508-CFTR activation and the resulting membrane depolarization was optically monitored using the FRET-based voltage-sensor dyes.
NIH3T3 mouse fibroblasts stably expressing ΔF508-CFTR are used for optical measurements of membrane potential. The cells are maintained at 37° C. in 5% CO2 and 90% humidity in Dulbecco's modified Eagle's medium supplemented with 2 mM glutamine, 10% fetal bovine serum, 1×NEAA, (3-ME, 1× pen/strep, and 25 mM HEPES in 175 cm^2 culture flasks. For all optical assays, the cells were seeded at 30,000/well in 384-well matrigel-coated plates and cultured for 2 hrs at 37° C. before culturing at 27° C. for 24 hrs. for the potentiator assay. For the correction assays, the cells are cultured at 27° C. or 37° C. with and without compounds for 16-24 hoursB) Electrophysiological Assays for assaying ΔF508-CFTR modulation properties of compounds
Compounds of the invention are useful as modulators of ATP binding cassette transporters. Table 3 below illustrates the EC50 and relative efficacy of certain embodiments in Table 1.

T1 sequence (P13569 with tags, fused parts or gaps DEL508-508): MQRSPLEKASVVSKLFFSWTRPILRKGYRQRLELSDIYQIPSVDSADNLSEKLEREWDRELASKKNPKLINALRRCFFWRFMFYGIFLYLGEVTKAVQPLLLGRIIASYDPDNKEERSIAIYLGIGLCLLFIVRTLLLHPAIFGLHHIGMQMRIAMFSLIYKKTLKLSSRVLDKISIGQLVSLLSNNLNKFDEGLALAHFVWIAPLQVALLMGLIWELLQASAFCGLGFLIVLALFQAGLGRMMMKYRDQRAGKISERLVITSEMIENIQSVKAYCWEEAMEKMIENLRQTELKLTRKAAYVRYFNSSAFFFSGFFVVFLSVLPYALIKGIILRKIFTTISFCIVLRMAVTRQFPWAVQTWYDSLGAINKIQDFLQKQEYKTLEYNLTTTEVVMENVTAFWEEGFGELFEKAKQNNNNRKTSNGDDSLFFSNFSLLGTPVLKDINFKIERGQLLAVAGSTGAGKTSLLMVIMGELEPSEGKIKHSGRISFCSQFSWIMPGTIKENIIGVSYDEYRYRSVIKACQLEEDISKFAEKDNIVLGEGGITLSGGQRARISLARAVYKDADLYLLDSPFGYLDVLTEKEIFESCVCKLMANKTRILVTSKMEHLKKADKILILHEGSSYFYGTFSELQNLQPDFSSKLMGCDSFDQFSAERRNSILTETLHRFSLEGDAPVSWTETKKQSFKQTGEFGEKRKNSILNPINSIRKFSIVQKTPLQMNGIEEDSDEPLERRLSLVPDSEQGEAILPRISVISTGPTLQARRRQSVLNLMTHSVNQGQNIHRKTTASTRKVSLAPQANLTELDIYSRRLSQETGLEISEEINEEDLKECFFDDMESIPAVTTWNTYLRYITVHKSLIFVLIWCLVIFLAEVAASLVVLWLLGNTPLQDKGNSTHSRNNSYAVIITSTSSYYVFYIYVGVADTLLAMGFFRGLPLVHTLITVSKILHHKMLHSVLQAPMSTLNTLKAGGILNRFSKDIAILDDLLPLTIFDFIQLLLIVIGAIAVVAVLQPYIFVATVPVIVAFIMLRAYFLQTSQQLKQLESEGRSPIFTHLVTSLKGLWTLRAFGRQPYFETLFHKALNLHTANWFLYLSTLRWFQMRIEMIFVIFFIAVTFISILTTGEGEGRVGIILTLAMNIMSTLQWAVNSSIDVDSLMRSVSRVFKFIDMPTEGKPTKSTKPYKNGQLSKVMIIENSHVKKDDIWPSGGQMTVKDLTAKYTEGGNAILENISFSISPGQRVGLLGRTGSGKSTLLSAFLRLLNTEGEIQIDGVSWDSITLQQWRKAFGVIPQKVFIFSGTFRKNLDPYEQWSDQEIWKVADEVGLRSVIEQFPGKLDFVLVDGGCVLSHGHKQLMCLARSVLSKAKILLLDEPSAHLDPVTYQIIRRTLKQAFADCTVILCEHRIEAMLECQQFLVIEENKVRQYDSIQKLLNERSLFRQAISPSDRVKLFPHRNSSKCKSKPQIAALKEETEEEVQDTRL

EC50	% Activity	SMILES
< 1000 nM	++ (“++” means between 25% to 100%)	O=C(Nc1ccc2cc[nH]c2c1)C(=O)c1c[nH]c2ccccc12 [Cmpd 4]
< 1000 nM	++ (“++” means between 25% to 100%)	O=C(Nc1cccc(C(F)(F)F)n1)C(=O)c1c[nH]c2ccccc12 [Cmpd 10]
< 1000 nM	++ (“++” means between 25% to 100%)	CCCCc1ccccc1NC(=O)C(=O)c1c[nH]c2ccccc12 [Cmpd 13]
< 1000 nM	++ (“++” means between 25% to 100%)	Cc1ccccc1Oc1ccccc1NC(=O)C(=O)c1c[nH]c2ccccc12 [Cmpd 11]
< 1000 nM	++ (“++” means between 25% to 100%)	O=C(Nc1ccccc1-c1ccccc1)C(=O)c1c[nH]c2ccccc12 [Cmpd 8]
1000 to 5000 nM	++ (“++” means between 25% to 100%)	O=C(Nc1ccccc1)C(=O)c1c[nH]c2ccccc12 [Cmpd 9]
1000 to 5000 nM	++ (“++” means between 25% to 100%)	O=C(Nc1ccccc1CN1CCCC1)C(=O)c1c[nH]c2ccccc12 [Cmpd 18]
< 1000 nM	++ (“++” means between 25% to 100%)	CC(C)(C)c1cc(C(C)(C)C)c(NC(=O)C(=O)c2c[nH]c3ccccc23)cc1O [Cmpd 24]
< 1000 nM	++ (“++” means between 25% to 100%)	CC(C)c1ccccc1NC(=O)C(=O)c1c[nH]c2ccccc12 [Cmpd 6]
< 1000 nM	++ (“++” means between 25% to 100%)	CCCc1ccccc1NC(=O)C(=O)c1c[nH]c2ccccc12 [Cmpd 5]
< 1000 nM	++ (“++” means between 25% to 100%)	CC(C)(C)c1ccc(NC(=O)C(=O)c2c[nH]c3ccccc23)cc1 [Cmpd 7]
1000 to 5000 nM	++ (“++” means between 25% to 100%)	O=C(Nc1ccccc1OC(F)F)C(=O)c1c[nH]c2ccccc12 [Cmpd 22]
< 1000 nM	++ (“++” means between 25% to 100%)	O=C(Nc1ccccc1F)C(=O)c1c[nH]c2ccccc12 [Cmpd 23]
< 1000 nM	++ (“++” means between 25% to 100%)	CC(C)(C)c1ccccc1NC(=O)C(=O)c1c[nH]c2ccccc12 [Cmpd 26]
1000 to 5000 nM	++ (“++” means between 25% to 100%)	Nc1cc(NC(=O)C(=O)c2c[nH]c3ccccc23)cc(C(F)(F)F)c1 [Cmpd 19]
< 1000 nM	++ (“++” means between 25% to 100%)	CCc1ccccc1NC(=O)C(=O)c1c[nH]c2ccccc12 [Cmpd 3, N-(2-Ethyl-phenyl)-2-(1H-indol-3-yl)-2-oxo-acetamide]
< 1000 nM	++ (“++” means between 25% to 100%)	O=C(Nc1ccccc1Oc1ccc(Cl)cc1Cl)C(=O)c1c[nH]c2ccccc12 [Cmpd 14]
< 1000 nM	++ (“++” means between 25% to 100%)	CC(C)(C)c1cc2cc[nH]c2cc1NC(=O)C(=O)c1c[nH]c2ccccc12 [Cmpd 25]
< 1000 nM	+ (“+” means <25%)	O=C(Nc1ccc(F)cc1)C(=O)c1c[nH]c2ccc(Br)cc12 [Cmpd 1]
< 1000 nM	++ (“++” means between 25% to 100%)	C=C(C)c1ccccc1NC(=O)C(=O)c1c[nH]c2ccccc12 [Cmpd 12]
> 5000 nM	++ (“++” means between 25% to 100%)	Cn1cc(C(=O)C(=O)Nc2ccccc2)c2ccccc21 [Cmpd 16]
< 1000 nM	++ (“++” means between 25% to 100%)	CN1Cc2c(NC(=O)C(=O)c3c[nH]c4ccccc34)cccc2C(c2ccccc2)C1 (stereo not shown) [Cmpd 20]
> 5000 nM	+ (“+” means <25%)	Cn1cc(C(=O)C(=O)Nc2ccccc2-c2ccccc2)c2ccccc21 [Cmpd 17]
1000 to 5000 nM	++ (“++” means between 25% to 100%)	Cc1ccc(C)n1-c1ccccc1NC(=O)C(=O)c1c[nH]c2ccccc12 [Cmpd 21]
1000 to 5000 nM	+ (“+” means <25%)	O=C(Nc1ccc(N2CCN(C(c3ccccc3)c3ccccc3)CC2)cc1)C(=O)c1c[nH]c2ccccc12 [Cmpd 2]
< 1000 nM	++ (“++” means between 25% to 100%)	O=C(Nc1ccccc1CN1CCCCC1)C(=O)c1c[nH]c2ccccc12 [Cmpd 15]
